In ChEMBL document CHEMBL1817597, “Antifungal thiopeptide cyclothiazomycin B1 exhibits growth inhibition accompanying morphological changes via binding to fungal cell wall chitin” (Bioorg Med Chem, 2011):
The source made the active and inactive calls. The calls are words filed in the database; no cut-off is given here.

How the values were obtained:
Mucor mucedo [1] = test: Induction of morphological changes in Mucor mucedo IFO 7684 assessed as thickening of hyphae at 100 uM after 24 hrs by microscopic analysis; type: functional, organism-based
Mucor mucedo [2] = test: Antimicrobial activity against Mucor mucedo IFO 7684 at 100 uM after 24 hrs by broth microdilution method; type: functional, organism-based
Mucor mucedo [3] = test: Inhibition of RNA synthesis in Mucor mucedo IFO 7684 assessed as [8-14C]-adenine uptake into acid-insoluble fractions at 0.77 mM after 25 mins by liquid scintillation counting; type: functional; details: IFO 7684, 25 min
Mucor mucedo [4] = test: Inhibition of DNA synthesis in Mucor mucedo IFO 7684 assessed as [8-14C]-adenine uptake into acid-insoluble fractions at 0.77 mM after 25 mins by liquid scintillation counting; type: functional; details: IFO 7684, 25 min
Fusarium oxysporum [5] = test: Antifungal activity against Fusarium oxysporum NBRC 5942 under hyperosmotic shock at 0.081 uM after 2 days by paper disc method; type: functional; details: NBRC 5942, 48 h, read-out: DIZ
Mucor mucedo [6] = test: Antifungal activity against Mucor mucedo IFO 7684 under hyperosmotic shock at 0.081 uM after 2 days by paper disc method; type: functional; details: IFO 7684, 48 h, read-out: DIZ
Mucor mucedo [7] = test: Antifungal activity against Mucor mucedo IFO 7684 under hypoosmotic shock assessed as increase of fragility of organism at 0.081 uM after 24 hrs measured after distilled water treatment for 10 mins by microscopic analysis; type: functional, organism-based
Mucor mucedo [8] = test: Inhibition of chitin synthase in Mucor mucedo IFO 7684 assessed as incorporation of GlcNAc from [14C]-UDP-GlcNAc into acid-insoluble fractions at 4 ug/ml after 55 mins by liquid scintillation counting
Fusarium oxysporum [9] = test: Antifungal activity against Fusarium oxysporum NBRC 5942 under hypoosmotic shock assessed as increase of fragility of organism at 0.081 uM after 24 hrs measured after distilled water treatment for 10 mins by microscopic analysis; type: functional, organism-based
Mucor mucedo [10] = test: Effect on cell wall re-generation in Mucor mucedo IFO 7684 spheroplasts under hyperosmotic condition at 0.081 uM up to 24 hrs by microscopic analysis; type: functional

CCCC(=O)Nc1ncnc2c1ncn2[C@@H]1O[C@@H]2COP(=O)(O)O[C@H]2[C@H]1OC(=O)CCC
Activity (Mucor mucedo [1]): inactive | Activity (Mucor mucedo [2]): inactive

CNCCNS(=O)(=O)c1cccc2cnccc12
Activity (Mucor mucedo [1]): inactive | Activity (Mucor mucedo [2]): inactive

O=c1[nH]cc(F)c(=O)[nH]1 [FLUOROURACIL]
inhibition at 770 µM (Mucor mucedo [3]): 75% | inhibition at 770 µM (Mucor mucedo [4]): 61%

C[C@@H]([C@H](N)C(=O)N[C@H](C(=O)O)[C@H]1O[C@@H](n2ccc(=O)[nH]c2=O)[C@H](O)[C@@H]1O)[C@H](O)c1ccc(O)cn1 [NIKKOMYCIN]
zone of inhibition at 0.081 µM (Fusarium oxysporum [5]): 0 mm | zone of inhibition at 0.081 µM (Mucor mucedo [6]): 23 mm | Activity (Mucor mucedo [7]): Active | inhibition (Mucor mucedo [8]): 69% | Activity (Fusarium oxysporum [9]): Active | Activity (Mucor mucedo [10]): inactive
